Data from patent publication US20060100170A1, “Isopycnic pharmaceutical formulation” (Agouron Pharmaceuticals, Inc., priority 2004, published 2006).

Key:
[1] = Drug depot below Tenon's capsule vs below the conjunctiva, retinal drug concentration; format: in vivo, New Zealand White rabbits; conditions: depot on outer surface of the sclera below Tenon's capsule; measured the day after the injection; rabbit eyes
From the text: The sclera and Tenon's capsule define the exterior surface of the globe of the eye. For treatment of ARMD, CNV, retinopathies, retinitis, uveitis, cystoid macular edema (CME), glaucoma, and other diseases or conditions of the posterior segment of the eye, it is preferable to dispose a depot of a specific quantity of an ophthalmically acceptable pharmaceutically active agent directly on the outer surface of the sclera and below Tenon's capsule. In addition, in cases of ARMD and CME it is most preferable to dispose the depot directly on the outer surface of the sclera, below Tenon's capsule, and generally above the macula. In a study using New Zealand White rabbits, a drug depot of 4,9(11)-Pregnadien-17α,21-diol-3,20-dione-21-acetate, an angiostatic steroid available from Steraloids, Inc. of Wilton, N.H., was disposed directly on the outer surface of the sclera, below the Tenon's capsule, and slightly posterior of the equator of the rabbit eyes. […] Given the fact that the Tenon's capsule of a New Zealand White rabbit is very thin, these beneficial results are highly unexpected. It is important to note that Tenon's capsule of the human eye is also very thin. […]

[2] = Sucrose effect on content uniformity in the ready to use (RTU) composition; format: physicochemical; conditions: ready to use composition made with sucrose from different vendors, FIG. 2
From the text: The concentrated sterile aqueous composition preferably comprises sucrose. The concentrated sterile aqueous composition comprises sucrose in an amount sufficient to form a stable aqueous composition of pharmaceutical agent represented by formula 1, typically about 40 to 80 weight percent sucrose based on the total weight of the composition. The concentrated sterile aqueous composition comprises sucrose in an amount ranging from a lower limit of 40, 45, 50, 55 or 60 or 65 weight percent, based on the total weight of the composition, to an upper limit of 70 or 75 or 80 weight percent, based on the total weight of the composition, with ranges from any upper limit to any lower limit being contemplated.
FIG. 2 illustrates the sucrose effect on content uniformity in the ready to use (RTU) composition.
The vertical bars represent 95% Confidence Interval.

[3] = Particle size distribution following jet-milling; format: physicochemical
From the text: The pharmaceutical agent is stable following gamma irradiation at 25 kGy and is stable following e-beam irradiation at 25 kGY. The particle size distribution, calculated by means well known in the art, following jet-milling (in microns) is as follows:
d10=0.5; d50=1.5; and d90=3.5; wherein for example, d50 represents 50% of the pharmaceutical agent is 1.5 microns or less in size.

[4] = Stability of the drug substance to light, room temperature and irradiation; format: physicochemical
From the text: The pharmaceutical agent is stable following gamma irradiation at 25 kGy and is stable following e-beam irradiation at 25 kGY. The particle size distribution, calculated by means well known in the art, following jet-milling (in microns) is as follows: […]

Q: For `CC(=O)OCC(=O)[C@@]1(O)CC[C@H]2[C@@H]3CCC4=CC(=O)CC[C@]4(C)C3=CC[C@@]21C` [4,9(11)-Pregnadien-17α,21-diol-3,20-dione-21-acetate], which “concentration of the angiostatic steroid, averaged over the entire retina, relative to a depot below the conjunctiva but above the Tenon's capsule” value [1] is on record?
A: about ten times greater

Q: With `OC[C@H]1O[C@@](CO)(O[C@H]2O[C@H](CO)[C@@H](O)[C@H](O)[C@H]2O)[C@@H](O)[C@@H]1O` [Sigma, S3929 Lot 101K0105, sucrose] as the molecule, how does the content uniformity [2] read?
A: best content uniformity

Q: Which “particle size d10” value [3] does the source give for `Cc1cc(C(=O)Nc2cc(Nc3ccc4c(/C=C/c5ccccn5)n[nH]c4c3)ccc2F)n(C)n1` [pharmaceutical agent 1] here?
A: 0.5 microns

Q: And the “particle size d50” value [3]?
A: 1.5 microns

Q: And the “particle size d90” value [3]?
A: 3.5 microns

Q: What about the light sensitivity ([4]; drug substance) of the same molecule?
A: light insensitive

Q: What about the “stability following e-beam irradiation” value ([4]; e-beam irradiation at 25 kGY) of the same molecule?
A: stable

Q: And the “stability following gamma irradiation” value ([4]; gamma irradiation at 25 kGy)?
A: stable

Q: What about the “stability at room temperature” value ([4]; room temperature) of the same molecule?
A: stable
